From US6893829B2, “Human leukocyte 12-lipoxygenase and its role in the pathogenesis of disease states” (City of Hope, priority 1992, dated 2005)

How the values were obtained:
PAK = PAK activity in CHO-AT1a cells; type: cell-based, Chinese hamster; conditions: AII 10^−7M, 30 minutes
Experimental: Cell lysis and PAK activity measurement were performed as described in Science, 269:221-223 (1995). Cells were lysed on ice in 50 mM Tris-HCl, 150 mM NaCl, 5 mM EGTA, 50 mM NaF, 10 mM Na pyrophosphate, 1% NP-40, 2.5% glycerol, and 1 mM Na3VO4 (pH 7.5), containing protease inhibitors PMSF, leupeptin and aprotinin. Cell were centrifuged for 10 minutes at 1000 g. For immunoprecipitation, the supernatants were incubated with anti-PAK1 or anti-PAK2 antibody (1:25) (Dept. Immuno. & Cell Biology, Scripps Res. Instit., La Jolla, Calif.) for 2 hours at 4° C. followed by incubation with 60 μl of 1:1 protein A beads for 60 minutes, then 5×1.0 ml lysis buffer washes and 2 washes with kinase buffer (50 mM HEPES, pH 7.5, 10 mM MgCl2 0.2 mM dithiothreitol, 2 μg myelin basic protein and 14 Mμ [r-^32P] ATP) for 20 minutes at 30° C. The reaction was stopped with SDS sample buffer, and results were visualized by SDS-PAGE and autoradiography.
(§1) It has been discovered that the administration of AII results in biphasic activation of MAP kinase (all of the MAP kinase experiments were conducted in CHO-AT1a cells—AII receptor AT1a cDNA transfected Chinese hamster ovary cells).

ERK = ERK activity in CHO-AT1a cells; type: cell-based, Chinese hamster; conditions: AII 10^−7M
Experimental: ERK activity was evaluated by the substrate-SDS-polyacrylamide gel method described in Anal. Biochem., 183:139-143 (1989). Confluent cells in […] were made quiescent in serum-free medium and then treated with agonists for various time periods. The cells were then lysed in lysis buffer (1% NP40, 1% sodium deoxycholate, 0.1% SDS, 100 mM NaCl, 50 mM Tris, 10 mM EDTA, 1 mM EGTA, aprotinin, […], 0.1 mM PMSF and 1 mM sodium orthovanadate, pH 7.4). Lysates were centrifuged to pellet nuclei and the cell extracts ([…]) were subjected to electrophoresis on SDS-polyacrylamide gels (10%) containing myelin basic protein (0.5 mg/ml) as an ERK substrate. The SDS was then washed, followed by denaturation, renaturation and protein phosphorylation on the gel with [^32P] ATP.
as §1

[1] = test system: leukocyte 12-LO mRNA in HSMC; test: 12-LO mRNA expression in HSMC (RT-PCR); type: cell-based, human; conditions: AII 10^−7 mol/L
Excerpt: FIGS. 5A and 5B illustrate the regulation of leukocyte 12-LO mRNA levels by AII in HSMC using RT-PCR. FIG. 5A is the autoradiogram of the blot hybridized with 12-LO oligonucleotide probe. FIG. 5B is etidium bromide stained agarose gel. […] RNA samples were amplified for 40 cycles with leukocyte 12-LO primers or GAPDH primers.
Total RNA from cultured HSMC, HAEC and fresh MO was extracted with guanidiumthiocyanate-phenol-chloroform using RNAzol (Cinna/Biotecx Laboratories International Inc., Texas). Some RNA samples were treated by RNAse-free DNAse. 3 microgram of total RNA was mixed with the PCR buffer (10 mmol/L Tris-HCl, pH 8.3, 50 mmol/L KCl, 1.5 mmol/L MgCl2, and 0.001% gelatin), 200 μmol/L of each of the four deoxynucleotide triphosphates, 25 pmol each of 5′- and 3′-primers, 2 U Avian Myeloblastosis Virus reverse transcriptase (20 U/μl; Life Sciences, St. Petersburg, Fla.), and 2.5 U Taq polymerase (Perkin Elmer Cetus, Norwalk, Conn.) in a final vol of 50 μl. In some reactions, 5 pmol of each 5′- and 3′-primer of β2 macroglobulin or GAPDH were added as an internal standard. The samples were placed in a thermal cycler at 37° C. for eight minutes for the RT reaction to proceed. Then conditions used for PCR were a denaturation step at 94° C. for one-minute, annealing at 50° C. for two minutes, and extension at 72° C. for two minutes for 20-40 cycles. Blank reactions with no RNA template were carried out through the RT and PCR steps. […]
20 μl aliquots of the PCR products were subjected to electrophoresis in a 1.8% agarose gel in Tris acetate-EDTA buffer. […] Blots were quantitated using a computerized video densitometer.
In order to evaluate the specific expression and regulation of 12-LO mRNA in HSMC, applicants used a RT-PCR assay that exclusively amplifies the leucocyte type of 12-LO. […] When PCR conditions were used that were specific for either the platelet type 12-LO or human 15-LO no specific RNA band was detected (data not shown). […]

## Angiotensin II (DRVYIHPF; Angiotensin-2; UniProt P01019 25-32, looked up) [AII, peptide hormone, added to cells as stimulus]
PAK
  stimulation of PAK, major peak: 5 fold
ERK; 3-4.5 hours
  stimulation of ERK activity, later peak: 1.5-3 fold
ERK; 5 minutes
  stimulation of ERK activity, first peak: 2-6 fold
[1]
  incubation time at which 12-LO mRNA induction starts: 12 h
  incubation time of maximum 12-LO mRNA induction: 36 h
[1]; serum deprived HSMC
  leukocyte type 12-LO mRNA expression: markedly upregulated
